Source: patent US5723496A, “Method for prevention and treatment of harmful effects of intracellular acidosis” (priority 1995, dated 1998)
Where “and” joins values, the source holds several entries; their conditions need not be identical. Equal values may be shown once. Entries after “also recorded” stand apart in the source; their conditions may differ.

Columns and labels:
[1] = cited from earlier work
[2] = tested on: adult mice exposed to anoxia; test: survival of adult mice exposed to anoxia; type: in vivo, Adult Swiss mice; set-up: mortality, 2.5 minutes of anoxia / protection against 2.5 minutes anoxia: concentration or dose not given beside the values
Experimental: Adult Swiss mice (BK-1 males, 20 g) purchased from Bantin & Kingman, Fremont, Calif. were used. Each batch consisted of 10 mice. Within each batch five mice were selected randomly as experimental animals and the remaining five as controls. Experimental mice received daily intraperitoneal injections of 0.25 ml of GES (50 mg/ml) for 14 days.
At day 14, all mice within the same batch (5 experimental and 5 each of the […]) were placed in a specially designed chamber (26.5×24.5×21.0 cm). Anoxia/hypoxia was produced by infusion of pure nitrogen gas ([…]) into the chamber for 2.5 or 2.75 minutes. Anoxia/hypoxia was reversed immediately after these intervals by removing the chamber and placing the mice in a room air environment.
The results are shown in FIG. 1 and discussed in detail above.

[3] = tested on: brains of newborn rat pups; test: brain intracellular pH and lactate of rat pups before and after 7.5 min anoxia (in vivo NMR); set-up: species or system Sprague-Dawley rats
Experimental: A Nicolet NMR System NT-200 (4.7T) was used for NMR experiments. Mice, rats or pups (Sprague-Dawley) were lightly anesthetized with ketamine hydrochloride, 50 mg/kg I.P., and placed in the NMR probe which contained an oval surface coil (one turn, 8×12 mm diameter) tunable to the resonance frequency of the proton and ^31 P. To eliminate signal contamination, scalp and temporal muscle were retracted. Field homogeneity was maximized by skimming on water proton signals. To produce anoxia, 100% nitrogen gas was rapidly infused (14 l/min) into the probe chamber. Anoxia could be reversed by infusion of air. Calibration studies using an oxygen meter (OM-1 Biological oxygen Meter, Micro-electrodes, Inc.) confirmed that this technique produced complete O2 depletion in the chamber or its reversal within 1 minute. ^1 H spectra were obtained at 199.97 MHz=z using a 1331-.tau.-2662 spin echo sequence with a .tau. delay of 68 ms (spectral width: 2 KHz, memory block: 4K, recycle time 2.7 seconds). The interpulse delay of the Hore sequence was adjusted so that the lactate resonance experienced least attenuation. ^31 P spectra were obtained at 80.99 MHz using a one pulse sequence (spectral width: 6 KHz, memory block: 4K, recycle time 2.7 seconds). The free induction decay (FID) like signals from remaining water proton signals were eliminated by applying sine function […]. The broad resonance with short T2 on ^31 P NMR spectra was removed using the convolution difference technique. Line broadening of 5 Hz and 30 Hz were applied as noise filter for proton and ^31 P spectra, respectively.
These animals were designated to be the experimental group. Physiological saline was administered to the control group of rats. Each group consisted of 10 animals.
On the last day of the administration, i.e. at day 10, the animals were each fixed in a special chamber set within a 4.7 T nuclear magnetic resonance apparatus. […]
The pH level and the lactate concentration in the cerebral cells before and after anoxia were measured by nuclear magnetic resonance spectroscopy using the procedure described above.

anaerobic glycolysis = test: brain lactate after 2.5 min anoxia; type: in vivo, Adult Swiss mice
Experimental: (§1) Adult Swiss mice (BK-1 male 20 g) purchased from Bantin & Kingman, Fremont, Calif., were used. Each batch consisted of 15 mice. Within each batch, five mice were selected randomly to be in the GES, taurine, or control group. A taurine group was included to serve as additional control.
Brain lactate levels were determined for mice exposed to 2.5 minutes of anoxia as follows. Animals were exposed to 2.5 minutes of anoxia under pentobarbital anesthesia. Immediately after the exposure, animals were immersed into a liquid nitrogen. The frozen brains were removed by chiseling and extracted as described above. Lactate concentration was determined using the lactate dehydrogenase reaction.

[4] = observation of behavior and respiratory pattern; type: in vivo, Adult Swiss mice; settings: mouse, in vivo, ip
Text: as §1

[5] = in vivo; cited from earlier work
[6] = set-up: species or system Adult Swiss mice; settings: mouse, in vivo
Experimental: as §1
Arterial blood gas sample was collected by puncture of the lower portion of the descending aorta under pentobarbital anesthesia. Analysis was performed on a Corning 168 Blood Gas Analyzer.

SMILES | pKa value [1] | protection against anoxia / survival (in words) [2] | mortality, 2.5 minutes of anoxia ([2]; 14 days i.p. pretreatment) | protection against 2.5 minutes anoxia ([2]; FIG. 1) [%] | effect on pH depression in anoxia (in words) [3] | brain pH after anoxia ([3]; taurine 16 mmol/kg/day i.p., after 7.5 min anoxia) | brain pH before anoxia ([3]; taurine 16 mmol/kg/day i.p., day 10) | Lactate (anaerobic glycolysis; Table 4, n = 5, post 2.5 min anoxia) [mM] | lactate levels post 2.5 min anoxia (in words) (anaerobic glycolysis; among three groups) | observable adverse effects in behavior or respiratory pattern [4] | blood-brain barrier crossing (in words) [5] | arterial pCO2 [6] [mmHg] | arterial pH [6] | arterial pO2 [6] [mmHg]
O=S(=O)(O)CCN1CCOCC1 [MES, 2-(N-morpholino) ethane sulfonic acid, reference compound] | 6.1 |  |  |  |  |  |  |  |  |  |  |  |  | 
Nc1ncnc2c1ncn2[C@@H]1O[C@H](COP(=O)(O)OP(=O)(O)OP(=O)(O)O)[C@@H](O)[C@H]1O [adenosine triphosphate (ATP), adenosine triphosphate] | 6.95 |  |  |  |  |  |  |  |  |  |  |  |  | 
NCCS(=O)(=O)O [taurine, 2-amineethanesulfonic acid, reference compound] |  | no difference between taurine pretreated animals (column B) and saline pretreated animal | 40% and 60% | 40 | pH depression is considerably prevented | 7.0 | 7.3 | 0.48 ± 0.08 | essentially identical among the three groups | did not show any observable adverse effects | does not cross the blood-brain barrier in adult mice; also recorded: does not cross the blood brain barrier freely in the adult mouse; also recorded: does cross the blood-brain barrier in newborns but it has no such effect in the adults | 41.26 ± 5.39 | 7.26 ± 0.04 | 97.7 ± 12.9
